Results on eight molecules are retold here after article PMC3136713, “Health-Beneficial Phenolic Aldehyde in Antigonon leptopus Tea” (Evidence-based Complementary and Alternative Medicine : eCAM, 2010).

The target in assay [1] is T1, COX-1 (Ovis aries, UniProt P05979).
T1 construct: gene PTGS1
T1 sequence (P05979 25-600): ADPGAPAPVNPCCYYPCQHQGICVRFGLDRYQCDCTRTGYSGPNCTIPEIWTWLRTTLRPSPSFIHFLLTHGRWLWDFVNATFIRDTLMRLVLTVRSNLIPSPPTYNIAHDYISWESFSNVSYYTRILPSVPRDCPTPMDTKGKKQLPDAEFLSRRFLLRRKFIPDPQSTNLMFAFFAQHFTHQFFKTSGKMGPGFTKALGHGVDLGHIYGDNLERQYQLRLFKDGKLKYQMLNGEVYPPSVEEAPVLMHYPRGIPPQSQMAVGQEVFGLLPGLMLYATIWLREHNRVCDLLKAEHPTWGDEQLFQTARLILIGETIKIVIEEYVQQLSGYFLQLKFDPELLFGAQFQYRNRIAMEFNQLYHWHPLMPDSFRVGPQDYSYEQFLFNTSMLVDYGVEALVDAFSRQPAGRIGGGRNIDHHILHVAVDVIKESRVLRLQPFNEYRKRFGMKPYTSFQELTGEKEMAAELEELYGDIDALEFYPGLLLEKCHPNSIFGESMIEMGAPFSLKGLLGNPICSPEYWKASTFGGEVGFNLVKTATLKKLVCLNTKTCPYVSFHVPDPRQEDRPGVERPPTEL
Kind of assay: O2 uptake cyclooxygenase assay, single concentration. It is filed as biochemical. The following applies: for inhibition at 100 µg/mL: read-out: % inhibition at 100 μg/mL.

The target in assay [2] is T1, COX-1. Kind of assay: O2 uptake cyclooxygenase assay, ram seminal vesicle COX-1; […] inhibition at […]. It is filed as biochemical.
The target of assay [3] is T2, COX-2 (Homo sapiens, UniProt P35354).
T2 construct: gene PTGS2
T2 sequence (P35354 18-604): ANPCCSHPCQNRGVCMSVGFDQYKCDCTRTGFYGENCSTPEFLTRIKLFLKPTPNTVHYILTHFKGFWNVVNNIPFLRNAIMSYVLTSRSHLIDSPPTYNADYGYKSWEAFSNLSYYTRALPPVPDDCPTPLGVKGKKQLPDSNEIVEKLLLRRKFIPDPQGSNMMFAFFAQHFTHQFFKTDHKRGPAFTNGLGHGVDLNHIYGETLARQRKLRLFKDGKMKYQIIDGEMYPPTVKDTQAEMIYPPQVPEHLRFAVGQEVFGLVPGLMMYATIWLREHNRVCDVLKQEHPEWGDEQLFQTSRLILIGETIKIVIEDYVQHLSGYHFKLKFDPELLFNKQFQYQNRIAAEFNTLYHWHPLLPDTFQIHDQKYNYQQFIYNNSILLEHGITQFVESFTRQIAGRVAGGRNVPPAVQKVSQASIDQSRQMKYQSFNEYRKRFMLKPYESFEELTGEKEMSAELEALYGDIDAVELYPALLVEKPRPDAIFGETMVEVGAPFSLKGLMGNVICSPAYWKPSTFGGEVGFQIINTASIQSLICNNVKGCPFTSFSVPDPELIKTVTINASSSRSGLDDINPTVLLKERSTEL
The assay is described as follows: biochemical. The following applies: read-out: % inhibition at 32 nM.

Assay [4] addresses T2, COX-2. The assay is described as follows: O2 uptake cyclooxygenase assay, single concentration. The following applies: read-out: % inhibition at 100 μg/mL. It is filed as biochemical.

For `O=Cc1cc(O)cc(O)c1` [compound 9, 3,5-dihydroxy benzaldehyde], the inhibition at 100 µg/mL at COX-1 [1] came to 82%.

Take `O=Cc1c(O)cc(O)cc1O` [compound 11, 2,4,6-trihydroxy benzaldehyde]: the “% inhibition at 100 μg/mL” value at COX-1 [1] is given as 86.

For `COc1cc(C=O)cc(OC)c1` [compound 21, Compound 21], the inhibition at 100 µg/mL on COX-1 [1] amounted to 85%.

`CC(=O)Oc1ccccc1C(=O)O` [Aspirin]: the “% inhibition at 60 μM” value on COX-1 [2] came to 69.

Take `O=Cc1cccc(O)c1O` [compound 5, 2,3-dihydroxy benzaldehyde]: the inhibition at 100 µg/mL on COX-1 [1] came out at 68%.

Take `COc1ccccc1C=O` [compound 14, Compound 14]: the inhibition at 100 µg/mL at COX-1 [1] was 83%.

Consider `CS(=O)(=O)c1ccc(C2=C(c3ccccc3)C(=O)OC2)cc1` [Vioxx], for which the inhibition at 0.032 µM at COX-2 [3] amounted to 91%.

Consider `O=Cc1cc(O)ccc1O` [compound 7, 2,5-dihydroxy benzaldehyde], for which the inhibition at 100 µg/mL on COX-2 [4] was determined as 61%.
